According to US11285156B2, “Substituted piperazines as KRAS G12C inhibitors” (Amgen Inc., priority 2018, dated 2022):

biological target: GDP-bound KRAS protein (aa 1-169), containing both G12C and C118A amino acid substitutions (Homo sapiens (Human), UniProt P01116, C118A/G12C); experiment: Coupled nucleotide exchange assay (SOS-mediated nucleotide exchange, AlphaScreen); assay type: biochemical; settings: 5 min compound pre-incubation
Sequence (P01116 other isoform, or with tags, fused parts or gaps G12C/C118A): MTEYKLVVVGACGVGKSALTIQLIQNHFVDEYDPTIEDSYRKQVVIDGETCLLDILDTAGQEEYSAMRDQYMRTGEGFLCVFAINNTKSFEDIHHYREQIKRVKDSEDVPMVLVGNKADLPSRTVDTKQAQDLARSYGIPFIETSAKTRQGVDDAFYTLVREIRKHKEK

In order of rising “Coupled exchange IC50 (5 min; μM)” value:
1. C=CC(=O)N1C[C@H](C)N(c2nc(=O)n(-c3c(C)cc([S+](C)[O-])cc3C(C)C)c3nc(-c4ccccc4C)c(Cl)cc23)C[C@H]1C (single isomer, unassigned) [Example 213-4]  1.51 µM
2. C=CC(=O)N1C[C@H](C)N(c2nc(=O)n(-c3c(C)cc(S(C)(=O)=O)cc3C(C)C)c3nc(-c4ccccc4F)c(Cl)cc23)C[C@H]1C (single isomer, unassigned) [Example 215-1]  3.79 µM
3. C=CC(=O)N1C[C@H](C)N(c2nc(=O)n(C3CCCCC3)c3nc(-c4ccccc4F)c(Cl)cc23)C[C@H]1C [110-2, 6-Chloro-1-cyclohexyl-4-[(2S,5R)-2,5-dimethyl-4-prop-2-enoyl-piperazin-1-yl]-7-(2-fluorophenyl)pyrido [2,3-d]pyrimidin-2-one]  13.4 µM

same assay, conditions: read-out: Coupled exchange IC50 (5 min; μM); 5 min compound pre-incubation

In order of rising IC50:
1. C=CC(=O)N1C[C@@H](C)N(c2nc(=O)n(-c3c(C)ccnc3C(C)C)c3nc(-c4ccccc4F)c(Cl)nc23)[C@@H](C)C1 [Example 106-7, 6-Chloro-4-[(2R,6S)-2,6-dimethyl-4-prop-2-enoyl-piperazin-1-yl]-7-(2-fluorophenyl)-1-(2-isopropyl-4-methyl-3-pyridyl)pteridin-2-one]  0.301 µM
2. C=CC(=O)N1C[C@H](C)N(c2nc(=O)n(-c3c(C)ccnc3C(C)C)c3nc(-c4ccccc4F)c(Cl)nc23)C[C@H]1C [Example 106-6, 6-Chloro-4-[(2S,5R)-2,5-dimethyl-4-prop-2-enoyl-piperazin-1-yl]-7-(2-fluorophenyl)-1-(2-isopropyl-4-methyl-3-pyridyl)pteridin-2-one]  0.322 µM
3. C=CC(=O)N1C[C@H](C)N(c2nc(=O)n(-c3c(N(C)C)ccnc3C(C)C)c3nc(-c4ccccc4S(C)(=O)=O)c(Cl)cc23)C[C@H]1C [Example 55-53, 6-Chloro-1-[4-(dimethylamino)-2-isopropyl-3-pyridyl]-4-[(2S,5R)-2,5-dimethyl-4-prop-2-enoyl-piperazin-1-yl]-7-(2-methylsulfonylphenyl)pyrido[2,3-d]pyrimidin-2-one]  0.356 µM
4. C=CC(=O)N1C[C@H](C)N(c2nc(=O)n(-c3c(C)cc(P(C)(C)=O)cc3C(C)C)c3nc(-c4ccccc4F)c(Cl)cc23)C[C@H]1C [Example 102-7, 6-Chloro-1-(4-dimethylphosphoryl-2-isopropyl-6-methyl-phenyl)-4-[(2S,5R)-2,5-dimethyl-4-prop-2-enoyl-piperazin-1-yl]-7-(2-fluorophenyl) pyrido[2,3-d]pyrimidin-2-one]  0.376 µM
5. C=CC(=O)N1C[C@H](C)N(c2nc(=O)n(-c3c(C)ccnc3C(C)C)c3nc(-c4ccccc4F)c(C)nc23)C[C@H]1C (single isomer, unassigned) [Example 225-2]  0.501 µM
6. C=CC(=O)N1C[C@H](C)N(c2nc(=O)n(-c3c(C(C)C)ncnc3C(C)C)c3nc(-c4ccccc4C#N)c(Cl)cc23)C[C@H]1C [Example 100-3, 2-[6-Chloro-1-(4,6-diisopropylpyrimidin-5-yl)-4-[(2S,5R)-2,5-dimethyl-4-prop-2-enoyl-piperazin-1-yl]-2-oxo-pyrido[2,3-d]pyrimidin-7-yl]benzonitrile]  0.763 µM
7. C=CC(=O)N1C[C@H](C)N(c2nc(=O)n(-c3c(C)ccnc3C(C)C)c3nc(-c4ncccc4OC)c(Cl)cc23)C[C@H]1C [96-2]  1.22 µM
8. CC(C)c1ncnc(C(C)C)c1-n1c(=O)nc(N2CCN(C(=O)/C=C/CN(C)C)C[C@@H]2C)c2cc(Cl)c(-c3ccccc3F)nc21 [Example 102-2, 6-Chloro-1-(4,6-diisopropylpyri-midin-5-yl)-4-[(2S)-4-[(E)-4-(dimethylamino)but-2-enoyl]-2-methyl-piperazin-1-yl]-7-(2-fluorophenyl) pyrido[2,3-d]pyrimidin-2-one]  1.23 µM
9. C=CC(=O)N1[C@H](C)CN(c2nc(=O)n(-c3c(C)ccnc3C(C)C)c3nc(-c4ccccc4F)c(Cl)nc23)C[C@@H]1C (single isomer, unassigned) [Example 224-2]  1.29 µM
10. C=CC(=O)N1C[C@@H](C)N(c2nc(=O)n(-c3c(C)ccnc3C(C)C)c3nc(-c4ccccc4F)c(Cl)nc23)[C@@H](C)C1 [Example 106-7-1, 6-Chloro-4-[(2R,6S)-2,6-dimethyl-4-prop-2-enoyl-piperazin-1-yl]-7-(2-fluorophenyl)-1-(2-isopropyl-4-methyl-3-pyridyl)pteridin-2-one]  1.98 µM
11. C=CC(=O)N1C[C@H](C)N(c2nc(=O)n(-c3ccccc3P(C)(C)=O)c3nc(-c4ccccc4F)c(Cl)cc23)C[C@H]1C [Example 55-55, 6-Chloro-1-(2-dimethylphosphorylphenyl)-4-[(2S,5R)-2,5-dimethyl-4-prop-2-enoyl-piperazin-1-yl]-7-(2-fluorophenyl)pyrido[2,3-d]pyrimidin-2-one]  3.14 µM
12. C=CC(=O)N1C[C@H](C)N(c2nc(=O)n(-c3c(C)ccnc3C(C)C)c3nc(-c4ccccc4F)c(C)nc23)C[C@H]1C (single isomer, unassigned) [Example 225]  4.43 µM
13. C=CC(=O)N1C[C@H](C)N(c2nc(=O)n(-c3c(C(C)C)ncnc3C(C)C)c3nc(-c4ccccc4S(C)(=O)=O)c(Cl)cc23)C[C@H]1C [Example 100-7, 6-Chloro-1-(4,6-diisopropylpyrimidin-5-yl)-4-[(2S,5R)-2,5-dimethyl-4-prop-2-enoyl-piperazin-1-yl]-7-(2-methylsulfonylphenyl) pyrido[2,3-d]pyrimidin-2-one]  5.1 µM
14. C=CC(=O)N1C[C@H](C)N(c2nc(=O)n(-c3c(C)ccnc3C(C)C)c3nc(-c4ccccc4F)c(C)nc23)C[C@H]1C (single isomer, unassigned) [Example 225-1]  7.62 µM
15. C=CC(=O)N1CCN(c2nc(=O)n(CC(C)(C)C#N)c3nc(-c4ccccc4F)c(Cl)cc23)CC1 [Example 106-10, 3-[6-Chloro-7-(2-fluorophenyl)-2-oxo-4-(4-prop-2-enoylpiperazin-1-yl)pyrido[2,3-d]pyrimidin-1-yl]-2,2-dimethyl-propanenitrile]  12.1 µM
16. C=CC(=O)N1[C@H](C)CN(c2nc(=O)n(-c3c(C)ccnc3C(C)C)c3nc(-c4ccccc4F)c(Cl)nc23)C[C@@H]1C (single isomer, unassigned) [Example 224-1]  23.3 µM
17. C=CC(=O)N1CCN(c2nc(=O)n(CC(C)(C)C)c3nc(Cl)c(Cl)cc23)CC1 [Example 100-5, 6,7-Dichloro-1-(2,2-dimethylpropyl)-4-(4-prop-2-enoylpiperazin-1-yl)pyrido[2,3-d]pyrimidin-2-one]  58.3 µM
18. C=CC(=O)N1C[C@H](C)N(c2nc(=O)n(-c3c(C(C)C)ccnc3C(=O)N(C)C)c3nc(-c4ccccc4F)c(Cl)cc23)C[C@H]1C [Example 102-8, 3-[6-Chloro-4-[(2S,5R)-2,5-dimethyl-4-prop-2-enoyl-piperazin-1-yl]-7-(2-fluorophenyl)-2-oxo-pyrido[2,3-d]pyrimidin-1-yl]-4-isopropyl-N,N-dimethyl-pyridine-2-carboxamide]  184 µM
19. C=CC(=O)N1CCN(c2nc(=O)n(CC(C)(C)C)c3ncccc23)CC1 [Example 100-6, 1-(2,2-dimethylpropyl)-4-(4-prop-2-enoylpiperazin-1-yl)pyrido[2,3-d]pyrimidin-2-one]  250 µM
